Results reported in US10570116B2, “1,4-dicarbonyl-piperidyl derivatives” (Merck Patent GmbH, priority 2015, dated 2020).
Read-outs that look alike come from different tables or passages of the source.

Experiments:
Tankyrases = assay: Measurement of cellular inhibition of Tankyrase (Axin2 level, Luminex based assay, DLD1 cells); type: cell-based; settings: increase of Axin2 level, 24 hours, read-out: EC50 [M] TNKS cellular assay
TNKS1 = TNKS1 (Homo sapiens (Human), UniProt O95271); assay: biochemical; type: biochemical
TNKS2 = TNKS2 (Homo sapiens (Human), UniProt Q9H2K2); assay: biochemical; type: biochemical
[1] = GST-tagged Tnks-1 (1023-1327 aa), read-out: IC50 [M] TNKS1 ELISA
[2] = GST-tagged Tnks-2 (873-1166 aa), read-out: IC50 [M] TNKS2 ELISA

| Structure (SMILES) | EC50 (Tankyrases) | IC50 (TNKS1; [1]) | IC50 (TNKS2; [2]) | also measured |
| --- | --- | --- | --- | --- |
| CC(C)CC(CC(=O)N1CCC(C(=O)c2cnn(C)c2)CC1)Cc1nc2ccccc2c(=O)[nH]1 (stereo in doubt) [Compound C10, 2-((S)-4-Methyl-2-{2-[4-(1-methyl-1H-pyrazole-4-carbonyl)-piperidin-1-yl]-2-oxo-ethyl}-pentyl)-3H-quinazolin-4-one] | 9e-08 M | – | – | – |
| CC(C)CC(CC(=O)N1CCC(C(=O)c2cnn(C)c2)CC1)Cc1nc2ccccc2c(=O)[nH]1 (stereo in doubt) [Compound C11, 2-((R)-4-Methyl-2-{2-[4-(1-methyl-1H-pyrazole-4-carbonyl)-piperidin-1-yl]-2-oxo-ethyl}-pentyl)-3H-quinazolin-4-one] | 5e-09 M | – | – | – |
| Cn1cc(C(=O)C2CCN(C(=O)CC(C)(C)Cc3nc4ccccc4c(=O)[nH]3)CC2)cn1 [Compound C1, 2-{2,2-Dimethyl-4-[4-(1-methyl-1H-pyrazole-4-carbonyl)-piperidin-1-yl]-4-oxo-butyl}-3H-quinazolin-4-one] | 4.5e-09 M | 5.7e-10 M | 3.7e-10 M | – |
| C[C@H](CC(=O)N1CCC(C(=O)c2cnn(C)c2)CC1)Cc1nc2ccccc2c(=O)[nH]1 [Compound C2, 2-{(S)-2-Methyl-4-[4-(1-methyl-1H-pyrazole-4-carbonyl)-piperidin-1-yl]-4-oxo-butyl}-3H-quinazolin-4-one] | 4.7e-09 M | – | – | – |
| C[C@@H](CC(=O)N1CCC(C(=O)c2cnn(C)c2)CC1)Cc1nc2ccccc2c(=O)[nH]1 [Compound C3, 2-{(R)-2-Methyl-4-[4-(1-methyl-1H-pyrazole-4-carbonyl)-piperidin-1-yl]-4-oxo-butyl}-3H-quinazolin-4-one] | 3e-08 M | – | – | – |
| CC(C)n1cc(C(=O)C2CCN(C(=O)C[C@@H](C)Cc3nc4ccccc4c(=O)[nH]3)CC2)cn1 [Compound C4, 2-{(S)-4-[4-(1-Isopropyl-1H-pyrazole-4-carbonyl)-piperidin-1-yl]-2-methyl-4-oxo-butyl}-3H-quinazolin-4-one] | 4.7e-09 M | – | – | – |
| CC(C)n1cc(C(=O)C2CCN(C(=O)C[C@H](C)Cc3nc4ccccc4c(=O)[nH]3)CC2)cn1 [Compound C5, 2-{(R)-4-[4-(1-Isopropyl-1H-pyrazole-4-carbonyl)-piperidin-1-yl]-2-methyl-4-oxo-butyl}-3H-quinazolin-4-one] | 3.9e-08 M | – | – | – |
| CC(C)[C@H](CC(=O)N1CCC(C(=O)c2cnn(C)c2)CC1)Cc1nc2ccccc2c(=O)[nH]1 [Compound C8, 2-((S)-3-Methyl-2-{2-[4-(1-methyl-1H-pyrazole-4-carbonyl)-piperidin-1-yl]-2-oxo-ethyl}-butyl)-3H-quinazolin-4-one] | 9.2e-09 M | – | – | – |
| CC(C)[C@@H](CC(=O)N1CCC(C(=O)c2cnn(C)c2)CC1)Cc1nc2ccccc2c(=O)[nH]1 [Compound C9, 2-((R)-3-Methyl-2-{2-[4-(1-methyl-1H-pyrazole-4-carbonyl)-piperidin-1-yl]-2-oxo-ethyl}-butyl)-3H-quinazolin-4-one] | 1.4e-07 M | – | – | – |
| Cn1cc(C(=O)C2CCN(C(=O)CC3(Cc4nc5ccccc5c(=O)[nH]4)CC3)CC2)cn1 [Compound C12, 2-(1-{2-[4-(1-Methyl-1H-pyrazole-4-carbonyl)-piperidin-1-yl]-2-oxo-ethyl}-cyclopropylmethyl)-3H-quinazolin-4-one] | 2.3e-08 M | 2.2e-09 M | 1e-09 M | – |
| Cn1cc(C(=O)C2CCN(C(=O)C(C)(C)CCc3nc4ccccc4c(=O)[nH]3)CC2)cn1 [Compound C13, 2-{3,3-Dimethyl-4-[4-(1-methyl-1H-pyrazole-4-carbonyl)-piperidin-1-yl]-4-oxo-butyl}-3H-quinazolin-4-one] | 2.3e-06 M | 6.1e-07 M | 4.2e-07 M | – |
| Cn1cc(C(=O)C2CCN(C(=O)CCC(C)(C)c3nc4ccccc4c(=O)[nH]3)CC2)cn1 [Compound C14, 2-{1,1-Dimethyl-4-[4-(1-methyl-1H-pyrazole-4-carbonyl)-piperidin-1-yl]-4-oxo-butyl}-3H-quinazolin-4-one] | – | 6.3e-08 M | 4.4e-08 M | – |
| COc1ccc(C(=O)C2CCN(C(=O)CCC(C)(C)c3nc4ccccc4c(=O)[nH]3)CC2)cc1 [Compound C15, 2-{4-[4-(4-Methoxy-benzoyl)-piperidin-1-yl]-1,1-dimethyl-4-oxo-butyl}-3H-quinazolin-4-one] | 6.2e-08 M | 9.2e-09 M | 5e-09 M | – |
| Cn1cc(C(=O)C2CCN(C(=O)COCc3nc4c(F)cc(F)cc4c(=O)[nH]3)CC2)cn1 [Compound C27, 6,8-Difluoro-2-{2-[4-(1-methyl-1H-pyrazole-4-carbonyl)-piperidin-1-yl]-2-oxo-ethoxymethyl}-3H-quinazolin-4-one] | – | – | – | IC50 (TNKS1): 2.9e-08 M; IC50 (TNKS2): 1.3e-08 M |
| COc1ccc(C(=O)C2CCN(C(=O)NCCc3nc4ccccc4c(=O)[nH]3)CC2)cc1 [Compound C29, 4-(4-Methoxy-benzoyl)-piperidine-1-carboxylic acid [2-(4-oxo-3,4-dihydro-quinazolin-2-yl)-ethyl]-amide] | – | 1.8e-09 M | 8.4e-10 M | – |
| COc1ccc(C(=O)C2CCN(C(=O)N(C)CCc3nc4ccccc4c(=O)[nH]3)CC2)cc1 [Compound C30, 4-(4-Methoxy-benzoyl)-piperidine-1-carboxylic acid methyl-[2-(4-oxo-3,4-dihydro-quinazolin-2-yl)-ethyl]-amide] | – | 6.2e-10 M | 5.7e-10 M | – |
| CC(C)(CC(=O)N1CCC(C(=O)c2cccc(C(=O)O)c2)CC1)Cc1nc2ccccc2c(=O)[nH]1 [Compound C35, 3-{1-[3,3-Dimethyl-4-(4-oxo-3,4-dihydro-quinazolin-2-yl)-butyryl]-piperidine-4-carbonyl}-benzoic Acid] | 5.5e-06 M | – | – | – |
| Cc1cccc2c(=O)[nH]c(CC(C)(C)CC(=O)N3CCC(C(=O)c4cccc(C(=O)O)c4)CC3)nc12 [Compound C37, 3-{1-[3,3-Dimethyl-4-(8-methyl-4-oxo-3,4-dihydro-quinazolin-2-yl)-butyryl]-piperidine-4-carbonyl}-benzoic Acid] | 4.8e-07 M | – | – | – |
| COC(=O)c1cccc(C(=O)C2CCN(C(=O)C[C@H](C)Cc3nc4c(C)cccc4c(=O)[nH]3)CC2)c1 [Compound C42, 3-{1-[(R)-3-Methyl-4-(8-methyl-4-oxo-3,4-dihydro-quinazolin-2-yl)-butyryl]-piperidine-4-carbonyl}-benzoic Acid Methyl Ester] | 2.5e-08 M | – | – | – |
| COC(=O)c1cccc(C(=O)C2CCN(C(=O)C[C@@H](C)Cc3nc4c(C)cccc4c(=O)[nH]3)CC2)c1 [Compound C43, 3-{1-[(S)-3-Methyl-4-(8-methyl-4-oxo-3,4-dihydro-quinazolin-2-yl)-butyryl]-piperidine-4-carbonyl}-benzoic Acid Methyl Ester] | 4.7e-10 M | – | – | – |
| Cc1cccc2c(=O)[nH]c(C[C@@H](C)CC(=O)N3CCC(C(=O)c4cccc(C(=O)O)c4)CC3)nc12 [Compound C44, 3-{1-[(R)-3-Methyl-4-(8-methyl-4-oxo-3,4-dihydro-quinazolin-2-yl)-butyryl]-piperidine-4-carbonyl}-benzoic Acid] | 5.3e-06 M | – | – | – |
| Cc1cccc2c(=O)[nH]c(C[C@H](C)CC(=O)N3CCC(C(=O)c4cccc(C(=O)O)c4)CC3)nc12 [Compound C45, 3-{1-[(S)-3-Methyl-4-(8-methyl-4-oxo-3,4-dihydro-quinazolin-2-yl)-butyryl]-piperidine-4-carbonyl}-benzoic acid] | 8.9e-08 M | – | – | – |
